These results are taken from patent US10004732B2 (Novartis AG, priority 2014, dated 2018).

In general, pIC50 refers to the IC50 on a negative log10 scale, so that one unit is a factor of ten. As usually defined, the IC50 is the concentration that gives 50% inhibition. Low values mean higher potency, high ones lower potency.

pIC50: −log10 of the molar value. Where two headings read alike, the source gives them in different places.

The target in data set [1] is T1, PI 3-kinase alpha (Homo sapiens, UniProt P42336). As to the kind of experiment: Kinase Glo Luminescent Kinase Assay (Kglo), assay A. The class given is biochemical. Conditions: read-out: Assay A PI3Kα IC50. A general note: In Kinase-Glo more light means more ATP remaining.
Procedure: (§1) Kinase Glo Luminescent Kinase Assay (Kglo) for Pb 3-Kinase Alpha (A), Pb 3-Kinase Beta (B), Vps34 (C), Pb 4-Kinase Beta (D)
(§2) The Kinase Glo Luminescent Kinase Assay (Promega, Madison/Wis., USA) is a homogeneous HTS method of measuring kinase activity by quantifying the amount of ATP remaining in solution following a kinase reaction.
(§3) L-α-phosphatidylinositol (PI), provided as 10 mg/ml solution in methanol, was transferred into a glass tube and dried under a nitrogen beam. It was then resuspended in 3% OctylGlucoside (1-0-n-octyl-beta-D-glucopyranoside) by vortexing and stored at 4° C. 5 μL of a mix of PI/OctylGlucoside with the PI 3-kinase alpha and PI 3-kinase beta subtypes, or Vps34 or PI 4-kinase beta were added. Kinase reactions were started by the addition of 5 μl of an ATP-mix containing in a final volume 10 μL 10 mM TRIS-HCl pH 7.5, 3 mM MgCl2, 50 mM NaCl, 0.05% CHAPS, 1 mM DTT and 1 μM ATP at room temperature.
(§4) All fits were performed with the program XLfit4 (ID Business Solutions, Guildford, UK).
Data set [2] has as its target T2, PI 3-kinase beta (Homo sapiens, UniProt P42338). As to the kind of experiment: Kinase Glo Luminescent Kinase Assay (Kglo), assay B. The class given is biochemical. The following applies: read-out: Assay B PI3Kβ IC50.
Target sequence in this assay (P42338 whole entry): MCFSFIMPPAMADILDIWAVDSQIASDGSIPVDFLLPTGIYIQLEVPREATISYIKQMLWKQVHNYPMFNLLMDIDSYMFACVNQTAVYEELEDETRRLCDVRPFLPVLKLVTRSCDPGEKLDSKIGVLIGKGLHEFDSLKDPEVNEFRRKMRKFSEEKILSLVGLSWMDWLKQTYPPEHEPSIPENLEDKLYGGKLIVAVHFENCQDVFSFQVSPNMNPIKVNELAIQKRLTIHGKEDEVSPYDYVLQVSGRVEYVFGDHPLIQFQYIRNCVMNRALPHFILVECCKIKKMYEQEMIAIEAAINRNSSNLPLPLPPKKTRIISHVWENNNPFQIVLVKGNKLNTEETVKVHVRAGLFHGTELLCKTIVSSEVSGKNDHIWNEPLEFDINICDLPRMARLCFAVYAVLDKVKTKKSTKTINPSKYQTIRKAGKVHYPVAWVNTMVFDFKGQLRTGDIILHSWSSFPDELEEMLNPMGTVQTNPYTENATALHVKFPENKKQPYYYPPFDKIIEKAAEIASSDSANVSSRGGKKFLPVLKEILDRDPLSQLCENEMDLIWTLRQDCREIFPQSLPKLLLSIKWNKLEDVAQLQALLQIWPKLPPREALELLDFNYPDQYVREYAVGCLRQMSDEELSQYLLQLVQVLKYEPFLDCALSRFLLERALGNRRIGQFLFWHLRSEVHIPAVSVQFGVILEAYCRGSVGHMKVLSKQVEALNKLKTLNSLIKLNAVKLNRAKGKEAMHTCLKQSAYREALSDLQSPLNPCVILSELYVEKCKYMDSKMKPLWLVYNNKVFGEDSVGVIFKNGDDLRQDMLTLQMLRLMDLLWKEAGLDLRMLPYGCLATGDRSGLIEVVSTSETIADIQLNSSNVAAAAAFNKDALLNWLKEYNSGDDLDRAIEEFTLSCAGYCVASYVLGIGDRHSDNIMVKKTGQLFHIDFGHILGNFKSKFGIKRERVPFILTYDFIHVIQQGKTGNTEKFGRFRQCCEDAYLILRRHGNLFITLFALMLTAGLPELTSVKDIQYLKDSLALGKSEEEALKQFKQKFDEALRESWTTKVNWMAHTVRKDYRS
Target sequence in this assay (P27986 461-568 partner): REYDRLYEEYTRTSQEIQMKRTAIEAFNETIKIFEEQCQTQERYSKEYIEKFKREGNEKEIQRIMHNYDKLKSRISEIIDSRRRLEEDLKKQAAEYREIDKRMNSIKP
Another data set addresses Vps34 (Homo sapiens, UniProt Q8NEB9). The data set can be described thus: Kinase Glo Luminescent Kinase Assay (Kglo), assay C. The following applies: read-out: Assay C VPS34 IC50. The class given is biochemical.
For another data set, the target named is PI 4-kinase beta (Homo sapiens, UniProt Q9UBF8). The data set can be described thus: Kinase Glo Luminescent Kinase Assay (Kglo), assay D. The following applies: read-out: Assay D PI4Kβ IC50. The class given is biochemical.
Data set [3] deals with T3, PI 3-kinase gamma (Homo sapiens, UniProt P48736). The data set can be described thus: TR-FRET Adapta assay, assay E. The following applies: read-out: Assay E PI3Kγ IC50. The class given is biochemical. On the technique in general: Time-resolved FRET reads energy transfer from a long-lived donor to a nearby acceptor.
In the next data set the target is mTOR (Homo sapiens, UniProt P42345). As to the kind of experiment: Lanthascreen kinase binding assay, assay G. The following applies: read-out: Assay G mTOR IC50.
Data set [4] deals with T1, PI 3-kinase alpha. As to the kind of experiment: Cellular assay H1, p-Akt (S473) in Rat-1 cells, Surefire format. The class given is cell-based. Conditions: non-asterisked data: version H1 (Surefire format), Rat-1 cells; read-out: Assay H PI3Kα IC50.
The target in data set [5] is T2, PI 3-kinase beta. The data set can be described thus: Cellular assay I1, p-Akt (S473) in Rat-1 cells, Surefire format. The following applies: non-asterisked data: version I1 (Surefire format), Rat-1 cells; read-out: Assay I PI3Kβ IC50. The class given is cell-based.
Target sequence in this assay (P42338 whole entry): as the sequence (P42338 whole entry) above
Target sequence in this assay (Q63787 whole entry partner): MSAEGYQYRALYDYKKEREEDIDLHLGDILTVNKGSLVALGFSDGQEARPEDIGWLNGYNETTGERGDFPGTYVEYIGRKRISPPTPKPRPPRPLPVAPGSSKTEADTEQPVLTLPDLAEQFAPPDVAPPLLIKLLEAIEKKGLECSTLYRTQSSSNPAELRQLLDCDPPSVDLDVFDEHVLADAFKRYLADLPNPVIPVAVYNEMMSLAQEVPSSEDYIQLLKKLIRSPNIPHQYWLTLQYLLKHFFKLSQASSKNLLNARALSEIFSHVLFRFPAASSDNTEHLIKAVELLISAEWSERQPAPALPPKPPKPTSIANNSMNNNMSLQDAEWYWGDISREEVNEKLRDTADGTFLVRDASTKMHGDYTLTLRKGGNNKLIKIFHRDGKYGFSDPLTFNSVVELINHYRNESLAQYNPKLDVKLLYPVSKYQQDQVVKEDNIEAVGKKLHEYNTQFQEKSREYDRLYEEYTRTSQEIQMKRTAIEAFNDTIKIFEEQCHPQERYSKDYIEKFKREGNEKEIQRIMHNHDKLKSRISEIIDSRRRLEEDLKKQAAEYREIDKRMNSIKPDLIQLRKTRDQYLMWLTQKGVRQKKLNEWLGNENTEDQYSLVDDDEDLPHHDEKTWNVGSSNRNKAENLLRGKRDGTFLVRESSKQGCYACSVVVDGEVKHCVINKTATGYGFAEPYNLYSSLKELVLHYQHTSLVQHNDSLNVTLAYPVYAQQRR
For data set [6], the target named is T4, PI 3-kinase delta (Homo sapiens, UniProt O00329). The data set can be described thus: Cellular assay J1, p-Akt (S473) in Rat-1 cells, Surefire format. The data set is classed as cell-based. Conditions: non-asterisked data: version J1 (Surefire format), Rat-1 cells; read-out: Assay J PI3Kδ IC50.
Target sequence in this assay (O00329 whole entry): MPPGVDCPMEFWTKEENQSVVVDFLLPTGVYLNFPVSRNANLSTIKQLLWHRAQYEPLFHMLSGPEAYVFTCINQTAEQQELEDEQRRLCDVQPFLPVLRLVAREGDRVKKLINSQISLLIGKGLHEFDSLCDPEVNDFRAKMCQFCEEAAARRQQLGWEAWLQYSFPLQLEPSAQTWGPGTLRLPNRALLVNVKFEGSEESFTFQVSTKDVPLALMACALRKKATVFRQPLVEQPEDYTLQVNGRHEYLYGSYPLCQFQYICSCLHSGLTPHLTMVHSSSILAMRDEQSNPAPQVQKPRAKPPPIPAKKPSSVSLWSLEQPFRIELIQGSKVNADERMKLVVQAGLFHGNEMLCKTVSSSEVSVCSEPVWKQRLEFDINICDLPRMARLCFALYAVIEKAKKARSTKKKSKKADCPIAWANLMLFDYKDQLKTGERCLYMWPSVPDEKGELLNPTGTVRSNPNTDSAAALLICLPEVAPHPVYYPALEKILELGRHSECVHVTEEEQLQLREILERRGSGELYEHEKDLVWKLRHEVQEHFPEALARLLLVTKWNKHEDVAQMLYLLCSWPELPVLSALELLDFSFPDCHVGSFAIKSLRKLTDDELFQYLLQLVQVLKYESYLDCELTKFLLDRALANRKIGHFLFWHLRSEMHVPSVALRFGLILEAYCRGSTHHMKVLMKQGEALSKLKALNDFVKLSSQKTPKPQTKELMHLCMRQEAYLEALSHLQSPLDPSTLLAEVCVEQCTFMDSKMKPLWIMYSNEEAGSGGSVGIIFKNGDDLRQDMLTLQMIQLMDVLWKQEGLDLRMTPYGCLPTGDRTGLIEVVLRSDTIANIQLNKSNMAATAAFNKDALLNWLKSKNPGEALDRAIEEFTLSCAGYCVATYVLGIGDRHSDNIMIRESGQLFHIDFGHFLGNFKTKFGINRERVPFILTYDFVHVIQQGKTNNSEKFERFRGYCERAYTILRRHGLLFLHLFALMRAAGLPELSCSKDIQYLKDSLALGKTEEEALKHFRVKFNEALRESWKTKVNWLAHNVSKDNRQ
Target sequence in this assay (Q63787 whole entry partner): as the sequence (Q63787 whole entry partner) above
The target of data set [7] is T3, PI 3-kinase gamma. The data set can be described thus: Cellular U937 AKT assay K1 (MSD). Conditions: U937 cells, K1 format; read-out: Assay K1 PI3Kγ IC50. The data set is classed as cell-based.
Data set [8] concerns IL-8-induced neutrophil shape change in human whole blood. As to the kind of experiment: Whole blood neutrophil shape change assay (L). The data set is classed as cell-based. The following applies: IL-8, human whole blood, read-out: Assay L WBSC IC50.
Procedure: Whole Blood Neutrophil Shape Change Assay (L)
IL-8 was made up to 2 μM stocks in 0.1% bovine serum albumin/PBS and stored at −80° C. On the day IL-8 was diluted in PBS (phosphate buffered saline) 10 minutes before use. IL-8 was used at final concentration of 2 nM and a concentration range from 0.003 to 200 nM for the donor dose response curve.
Assay fixative solution was prepared fresh each day from 10× concentrated CellFIX™ solution diluted 1:10 in sterile distilled water and then 1:4 with PBS. Assay fixative solution was kept on ice prior to use.
A 10× lysis buffer was prepared in advance by dissolving 20.75 g NH4Cl and 2.5 g KHCO3 in 250 ml sterile H2O. This 10× lysis buffer was filtered under sterile conditions and stored for up to two weeks at 4° C. On the day a 1× lysis solution was prepared with sterile distilled H2O and kept on ice prior to use.
The test compounds were prepared as 10 mM stock solutions in 100% DMSO and were stored at 4° C. Once in use for an assay 10 mM stock compounds were thawed and stored at RT protected from light. Compound dilutions were prepared fresh on the day. The first series of dilutions in 100% DMSO were done first thing in the morning. Only once blood had been collected and arrived in laboratory was the next set of dilutions into PBS carried out (1:10 PBS, 10% DMSO). This limited the exposure of diluted compound to plastic and made sure the exposure timing was consistent between assays.
Compound dilutions in 100% DMSO were prepared as described previously. Human whole blood was collected in K2 EDTA Vacutainers. Once blood was in the laboratory, compound dilutions into PBS were carried out as described previously and depicted in Table 1.
The outer wells of the deep well assay plate were filled with 1200 μl of sterile distilled H2O in an effort to limit edge effects (rows A1-H1, A1-A12, A12-H12).
An IL-8 dose response was determined for each blood donor examined, to monitor the donor response to IL-8. At this step in assay preparation for the IL-8 dose response samples 10 μl of PBS was added to designated wells. In addition the assay window without DMSO was also assessed each day. For such samples at this step in assay preparation 10 μl of PBS was added in the place of 10% DMSO.
Lids were placed on the 96 well plates and samples were incubated for 15 minutes at 37° C. in a water-bath.
Following the compound pre-incubation 10× final IL-8 was added to appropriate wells (10 μl of 20 nM working stock IL-8, final IL-8 concentration in blood=2 nM) and 10 μl of PBS was added to the un-stimulated controls. 10× final dose response range IL-8 was also added to designated wells (final concentration range on assay plate was 200 nM to 0.0005 nM, 1:5 serial dilution in PBS). The IL-8 and PBS were added to appropriate wells across all assay plates in the same sequence as the blood to compound addition. […] Samples were incubated for 5 minutes at 37° C. in a water-bath. Following the incubation sample plates were transferred to ice where 250 μl of chilled Assay Fixative Buffer was added promptly to all wells.
Samples were incubated on ice for 7 minutes (no mixing). […] Once added samples were mixed once and incubated on ice for 30 minutes to achieve uniform red blood cells lysis. After lysis, 200 μl of sample was transferred to a 96 well microplate on ice. […] Granulocytes were identified based on differential side scatter (SSC) and forward scatter (FSC) characteristics.
In data set [9] the target is T4, PI 3-kinase delta. The data set can be described thus: TR-FRET Adapta assay, assay F. The following applies: for pIC50: read-out: Assay F PI3Kδ IC50.
Target sequence in this assay (O00329 whole entry): as the sequence (O00329 whole entry) above
Target sequence in this assay (P27986 461-568 partner): as the sequence (P27986 461-568 partner) above
The nature of data set [10]: Microsomal clearance assay (M). Conditions: intrinsic clearance in rat liver microsomes. Background: Microsomes from liver hold many membrane-bound enzymes, among them those of drug oxidation.
Procedure: The experiments were performed in 96-well glass plates at 37° C. on an automated Tecan EVO platform. Test compounds at a concentration of 10 mM in pure DMSO were diluted 1:1000 in water to 10 μM. […] Reactions were initiated by the addition of 150 μL of a cofactor solution containing 2 mM NADPH.

Sequence of PI 4-kinase beta (Q9UBF8 whole entry): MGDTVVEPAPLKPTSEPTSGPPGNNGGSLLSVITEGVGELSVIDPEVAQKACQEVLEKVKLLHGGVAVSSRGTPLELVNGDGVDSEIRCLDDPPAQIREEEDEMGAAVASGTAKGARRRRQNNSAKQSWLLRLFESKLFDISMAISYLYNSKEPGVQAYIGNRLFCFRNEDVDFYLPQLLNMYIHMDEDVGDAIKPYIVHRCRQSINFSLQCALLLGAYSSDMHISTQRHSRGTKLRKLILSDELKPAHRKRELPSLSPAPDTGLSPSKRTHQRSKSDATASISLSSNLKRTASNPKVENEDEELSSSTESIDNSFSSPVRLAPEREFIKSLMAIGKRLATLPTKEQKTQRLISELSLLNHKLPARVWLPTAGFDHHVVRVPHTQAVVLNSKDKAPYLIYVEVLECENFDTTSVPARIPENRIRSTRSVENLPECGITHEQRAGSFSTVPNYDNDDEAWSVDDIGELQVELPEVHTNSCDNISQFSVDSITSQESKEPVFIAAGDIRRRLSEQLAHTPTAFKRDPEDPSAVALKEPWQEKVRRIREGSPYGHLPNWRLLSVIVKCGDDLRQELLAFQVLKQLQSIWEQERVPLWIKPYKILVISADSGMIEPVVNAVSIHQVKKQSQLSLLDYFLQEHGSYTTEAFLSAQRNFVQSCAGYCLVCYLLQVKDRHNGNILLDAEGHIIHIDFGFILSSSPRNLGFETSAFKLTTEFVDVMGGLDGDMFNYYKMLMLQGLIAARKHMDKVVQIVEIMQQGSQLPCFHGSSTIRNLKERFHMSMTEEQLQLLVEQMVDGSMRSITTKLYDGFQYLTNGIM
T3 sequence (P48736 whole entry): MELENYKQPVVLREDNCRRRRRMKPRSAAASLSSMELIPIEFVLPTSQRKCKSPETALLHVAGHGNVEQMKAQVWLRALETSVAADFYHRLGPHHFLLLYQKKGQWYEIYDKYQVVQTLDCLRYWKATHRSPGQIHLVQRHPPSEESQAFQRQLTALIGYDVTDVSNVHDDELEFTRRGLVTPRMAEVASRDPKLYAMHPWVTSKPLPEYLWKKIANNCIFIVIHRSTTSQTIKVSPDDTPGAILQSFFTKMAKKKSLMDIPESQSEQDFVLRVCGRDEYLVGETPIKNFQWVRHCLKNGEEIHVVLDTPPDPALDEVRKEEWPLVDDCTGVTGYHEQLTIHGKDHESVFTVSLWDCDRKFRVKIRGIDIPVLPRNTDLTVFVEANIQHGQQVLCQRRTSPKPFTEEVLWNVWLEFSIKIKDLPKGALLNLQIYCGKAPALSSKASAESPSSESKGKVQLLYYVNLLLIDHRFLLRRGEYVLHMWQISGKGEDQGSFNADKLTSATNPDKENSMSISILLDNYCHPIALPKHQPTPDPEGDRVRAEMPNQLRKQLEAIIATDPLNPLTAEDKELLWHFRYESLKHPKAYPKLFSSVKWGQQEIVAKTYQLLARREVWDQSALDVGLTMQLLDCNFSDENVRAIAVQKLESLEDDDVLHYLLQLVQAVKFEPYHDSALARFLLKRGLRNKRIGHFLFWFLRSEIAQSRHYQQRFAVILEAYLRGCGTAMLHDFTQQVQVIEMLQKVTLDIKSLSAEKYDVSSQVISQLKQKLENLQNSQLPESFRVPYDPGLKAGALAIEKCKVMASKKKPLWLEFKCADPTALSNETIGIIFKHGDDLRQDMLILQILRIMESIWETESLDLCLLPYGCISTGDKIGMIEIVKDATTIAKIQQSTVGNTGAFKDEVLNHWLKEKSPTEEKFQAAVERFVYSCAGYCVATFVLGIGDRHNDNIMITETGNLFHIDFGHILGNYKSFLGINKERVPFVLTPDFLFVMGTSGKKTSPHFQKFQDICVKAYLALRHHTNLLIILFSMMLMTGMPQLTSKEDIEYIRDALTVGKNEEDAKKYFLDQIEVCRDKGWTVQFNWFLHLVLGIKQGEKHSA
Procedure for PI 4-kinase beta: as §1, §2, §3, §4
Procedure for mTOR: Lanthascreen™ Kinase Binding Assay for mTOR (G)
Binding of an inhibitor to the kinase competes for binding with the tracer, resulting in a loss of FRET.
50 nL of compound dilutions were dispensed onto white 384-well small volume polystyrene plate.

With `Cc1ncn(-c2nc(-c3cc(S(=O)(=O)NCCC(C)(C)O)ccc3C)cnc2N)n1` [Example 65, 3-(5-Amino-6-(3-methyl-1H-1,2,4-triazol-1-yl)pyrazin-2-yl)-N-(3-hydroxy-3-methylbutyl)-4-methylbenzenesulfonamide], the pIC50 is 6.36 on PI 3-kinase alpha [1]; 5.39 on PI 3-kinase beta [2]; under 5.04 at Vps34; under 5.04 on PI 4-kinase beta; 7.66 on PI 3-kinase gamma [3]; under 5.04 at mTOR. Besides, the pIC50 is 5.84 on PI 3-kinase alpha [4]; under 5.00 on PI 3-kinase beta [5]; 5.84 on PI 3-kinase delta [6]; 6.81 at PI 3-kinase gamma [7]; 6.10 in [8] (Homo sapiens, Neutrophil); 6.62 on PI 3-kinase delta [9]. In addition, the “Assay M RLM CI(int)” value in data set [10] worked out at 87 µL/min/mg.
For `Cc1ccc(S(=O)(=O)NC2CC3(CC(O)C3)C2)cc1-c1cnc(N)c(-n2cncn2)n1` (stereo not shown) [Example 67, 3-(5-Amino-6-(1H-1,2,4-triazol-1-yl)pyrazin-2-yl)-N-(6-hydroxyspiro[3.3]heptan-2-yl)-4-methylbenzenesulfonamide], the pIC50 at PI 3-kinase alpha [1] is 7.05; at PI 3-kinase beta [2], 6.07; at Vps34 it was 5.74; at PI 4-kinase beta, 5.13; at PI 3-kinase gamma [3], 8.52; at mTOR, 5.66. Moreover, the pIC50 at PI 3-kinase alpha [4] was 5.88; on PI 3-kinase beta [5], 5.53; on PI 3-kinase delta [6], 6.04; at PI 3-kinase gamma [7], 7.17; in [8] (Homo sapiens, Neutrophil) it was 6.60; on PI 3-kinase delta [9], 6.80. For the same molecule, the “Assay M RLM CI(int)” value in data set [10] was 36 µL/min/mg.
Consider `Cc1ccc(S(=O)(=O)N[C@H]2CC[C@](C)(O)CC2)cc1-c1cnc(N)c(-n2cncn2)n1` [Example 69a, 3-(5-amino-6-(1H-1,2,4-triazol-1-yl)pyrazin-2-yl)-N-((1r,4r)-4-hydroxy-4-methylcyclohexyl)-4-methylbenzenesulfonamide], for which the pIC50 on PI 3-kinase alpha [1] was 6.41; at PI 3-kinase beta [2], 5.46; on Vps34, under 5.00; on PI 4-kinase beta it was under 5.00; on PI 3-kinase gamma [3], 7.42; at mTOR, 5.04. For the same molecule, the pIC50 was 5.48 on PI 3-kinase alpha [4]; 5.35 on PI 3-kinase beta [5]; 5.58 at PI 3-kinase delta [6]; 6.99 on PI 3-kinase gamma [7]; 5.94 in [8] (Homo sapiens, Neutrophil). Besides, on PI 3-kinase delta [9] (Assay F PI3Kδ IC50 (μM)), the 50% inhibitory concentration (IC50) stood at 0.53 µM. In [10], the “Assay M RLM CI(int)” value was 49 µL/min/mg.
For the molecule `Cc1ccc(S(=O)(=O)N[C@H]2CC[C@@](C)(O)CC2)cc1-c1cnc(N)c(-n2cncn2)n1` [Example 69b, 3-(5-amino-6-(1H-1,2,4-triazol-1-yl)pyrazin-2-yl)-N-(cis-4-hydroxy-4-methylcyclohexyl)-4-methylbenzenesulfonamide], the pIC50 at PI 3-kinase alpha [1] was 6.41; on PI 3-kinase beta [2], 5.85; on Vps34 it was under 5.00; at PI 4-kinase beta it was under 5.00; on PI 3-kinase gamma [3] it was 7.24; at mTOR, 5.02. Further, the negative-log IC50 (pIC50) on PI 3-kinase alpha [4] was 5.18; at PI 3-kinase beta [5], 5.07; on PI 3-kinase delta [6], 5.29; at PI 3-kinase gamma [7] it was 6.87; in [8], 5.71; on PI 3-kinase delta [9], 6.16. The “Assay M RLM CI(int)” value in data set [10] came to 227 µL/min/mg.
In the case of `Cc1ccc(S(=O)(=O)NC[C@H]2C[C@@H](O)C2)cc1-c1cnc(N)c(-n2cncn2)n1` [Example 72, 3-(5-Amino-6-(1H-1,2,4-triazol-1-yl)pyrazin-2-yl)-N-(((1s,3s)-3-hydroxycyclobutyl)methyl)-4-methylbenzenesulfonamide], the negative logarithm of the IC50 (pIC50) at PI 3-kinase alpha [1] is 6.24; on PI 3-kinase beta [2], 5.57; at Vps34 it was under 5.04; at PI 4-kinase beta, under 5.04; on PI 3-kinase gamma [3], 7.47; on mTOR, under 5.04. Besides, the pIC50 was 5.51 on PI 3-kinase alpha [4]; 5.22 on PI 3-kinase beta [5]; 5.58 at PI 3-kinase delta [6]; 6.53 at PI 3-kinase gamma [7]; 6.14 in [8] (Homo sapiens, Neutrophil); 6.41 on PI 3-kinase delta [9]. In data set [10], the “Assay M RLM CI(int)” value came out at 41 µL/min/mg.
For the molecule `Cc1ccc(S(=O)(=O)NCC(C)(C)CO)cc1-c1cnc(N)c(-n2cncn2)n1` [Example 73, 3-(5-Amino-6-(1H-1,2,4-triazol-1-yl)pyrazin-2-yl)-N-(3-hydroxy-2,2-dimethylpropyl)-4-methylbenzenesulfonamide], the pIC50 at PI 3-kinase alpha [1] was 6.46; at PI 3-kinase beta [2] it was 5.74; on Vps34, under 5.04; at PI 4-kinase beta, under 5.04; at PI 3-kinase gamma [3], 7.82; on mTOR, under 5.04. In addition, the pIC50 at PI 3-kinase alpha [4] is 5.65; at PI 3-kinase beta [5], 5.27; at PI 3-kinase delta [6] it was 5.70; on PI 3-kinase gamma [7], 6.75; in [8] (Homo sapiens, Neutrophil) it was 6.10; at PI 3-kinase delta [9], 6.41. Further, in data set [10], the “Assay M RLM CI(int)” value was found to be 64 µL/min/mg.
Consider `Cc1ccc(S(=O)(=O)N[C@H]2CC[C@H](O)CC2)cc1-c1cnc(N)c(-n2cccn2)n1` [Example 103, 3-(5-Amino-6-(1H-pyrazol-1-yl)pyrazin-2-yl)-N-((1r,4r)-4-hydroxycyclohexyl)-4-methylbenzenesulfonamide], for which the pIC50 on PI 3-kinase alpha [1] was 6.41; on PI 3-kinase beta [2], 5.73; at Vps34, under 5.04; at PI 4-kinase beta it was 5.56; on PI 3-kinase gamma [3], 7.89; at mTOR, under 5.04. The pIC50 was 5.65 at PI 3-kinase alpha [4]; 5.49 at PI 3-kinase beta [5]; 6.07 at PI 3-kinase delta [6]; 7.55 on PI 3-kinase gamma [7]; 6.29 in data set [8] (Homo sapiens, Neutrophil); 6.82 at PI 3-kinase delta [9]. For the same molecule, the “Assay M RLM CI(int)” value in data set [10] was found to be 29 µL/min/mg.
For `Cc1cnn(-c2nc(-c3cc(S(=O)(=O)N[C@H]4CC[C@H](O)CC4)ccc3C)cnc2N)c1` [Example 111, 3-(5-Amino-6-(4-methyl-1H-pyrazol-1-yl)pyrazin-2-yl)-N-((1r,4r)-4-hydroxycyclohexyl)-4-methylbenzenesulfonamide], the pIC50 at PI 3-kinase alpha [1] was 6.74; at PI 3-kinase beta [2] it was 5.70; at Vps34, under 5.04; at PI 4-kinase beta, 5.71; at PI 3-kinase gamma [3] it was 7.74; on mTOR, under 5.04. Moreover, the negative logarithm of the IC50 (pIC50) was 5.83 on PI 3-kinase alpha [4]; under 5.00 on PI 3-kinase beta [5]; 6.34 at PI 3-kinase delta [6]; 7.70 on PI 3-kinase gamma [7]; 6.20 in data set [8] (Homo sapiens, Neutrophil); 7.22 at PI 3-kinase delta [9]. Moreover, the “Assay M RLM CI(int)” value in data set [10] came to 74 µL/min/mg.
Turning to `Cc1cc(F)c(S(=O)(=O)NCCCO)cc1-c1cnc(N)c(-c2cnn(C)c2)n1` [Example 114, 5-(5-Amino-6-(1-methyl-1H-pyrazol-4-yl)pyrazin-2-yl)-2-fluoro-N-(3-hydroxypropyl)-4-methylbenzenesulfonamide], the pIC50 was 6.54 at PI 3-kinase alpha [1]; 5.43 on PI 3-kinase beta [2]; 5.11 at Vps34; 5.23 on PI 4-kinase beta; 7.36 on PI 3-kinase gamma [3]; under 5.04 at mTOR. Also, the negative logarithm of the IC50 (pIC50) at PI 3-kinase alpha [4] was 5.27; at PI 3-kinase beta [5], under 5.52; at PI 3-kinase delta [6], 5.10; on PI 3-kinase gamma [7] it was 6.75; in [8] (Homo sapiens, Neutrophil) it was 6.30; at PI 3-kinase delta [9], 5.92. The “Assay M RLM CI(int)” value in data set [10] amounted to 17 µL/min/mg.
Regarding `Cc1cc(F)c(S(=O)(=O)NCCC(C)(C)O)cc1-c1cnc(N)c(-c2cnn(C)c2)n1` [Example 115, 5-(5-Amino-6-(1-methyl-1H-pyrazol-4-yl)pyrazin-2-yl)-2-fluoro-N-(3-hydroxy-3-methylbutyl)-4-methylbenzenesulfonamide], the pIC50 on PI 3-kinase alpha [1] is 6.49; at PI 3-kinase beta [2], 5.63; at Vps34, 5.05; at PI 4-kinase beta, 5.25; on PI 3-kinase gamma [3], 7.41; on mTOR, 5.06. For the same molecule, the pIC50 on PI 3-kinase alpha [4] is 5.53; on PI 3-kinase beta [5] it was 5.45; at PI 3-kinase delta [6], 5.66; on PI 3-kinase gamma [7] it was 6.93; in [8] (Homo sapiens, Neutrophil), 5.96; on PI 3-kinase delta [9] it was 6.32. For the same molecule, in [10], the “Assay M RLM CI(int)” value amounted to 38 µL/min/mg.
